Drawing on patent US11623919B2, “Heterocyclic P2X7 antagonists” (AXXAM S.P.A., priority 2017, dated 2023), this text covers IC50 for 17 compounds.

Bounds are passed on as bounds.

Common to all, as to format: cell-based
The target in experiment [1] is T1, P2X7 receptor (Homo sapiens, UniProt Q99572).
T1 sequence (Q99572 1-595): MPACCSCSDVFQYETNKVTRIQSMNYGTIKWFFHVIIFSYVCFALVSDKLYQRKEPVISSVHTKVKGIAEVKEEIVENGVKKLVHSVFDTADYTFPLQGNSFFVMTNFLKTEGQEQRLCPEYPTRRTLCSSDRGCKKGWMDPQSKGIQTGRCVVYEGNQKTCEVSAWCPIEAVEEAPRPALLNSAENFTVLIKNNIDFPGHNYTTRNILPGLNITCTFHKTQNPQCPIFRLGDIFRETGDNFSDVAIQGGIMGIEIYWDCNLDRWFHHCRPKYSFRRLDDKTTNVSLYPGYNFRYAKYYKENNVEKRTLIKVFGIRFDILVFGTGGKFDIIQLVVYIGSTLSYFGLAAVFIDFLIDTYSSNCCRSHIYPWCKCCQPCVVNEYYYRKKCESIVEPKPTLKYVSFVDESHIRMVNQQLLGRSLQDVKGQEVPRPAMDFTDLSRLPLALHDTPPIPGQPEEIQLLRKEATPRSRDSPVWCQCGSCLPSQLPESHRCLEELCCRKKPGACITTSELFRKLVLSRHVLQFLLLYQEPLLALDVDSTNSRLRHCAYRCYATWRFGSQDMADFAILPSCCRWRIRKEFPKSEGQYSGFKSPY
As to the kind of experiment: YO-PRO-1 uptake assay. The arrangement: expressed in transfected cells. As to conditions: HEK-293 cells stably transfected with P2X7 receptor; Bz-ATP EC80 (30 μM); Low Divalent Cation Assay Buffer. From the text: YO-PRO®-1 is a fluorescent DNA-binding dye with a MW of 374 Da (Molecular Probes®, cat. Y3603). This method is based upon the presumed ability of YO-PRO®-1 to enter through the dilated or “large pore form” of P2X7 receptor and to bind to intracellular DNA whereupon it increases many fold its fluorescence intensity. The dye ha an absorption spectrum compatible with excitation at 488 nm by argon laser sources and its emission wavelength is in the range of 515-575 nm. The aim of this assay was to validate the interaction of antagonists with P2X7 receptor using an alternative readout to Ca2+-sensitive fluorescent dyes.
HEK-293 cells stably transfected with P2X7 receptor were seeded overnight un growth medium at 20,000 cell/well in 384-well plate. 24 hours later, the medium was removed, the cells were washed with Low Divalent Cation Assay Buffer (0.3 mM Ca^2+ and 0 mM Mg^2+) and then pre-loaded with 20 μL/w of 5 μM YO-PRO®-1 dye.
FLIPRTETRA fluorescence measurement immediately started. Then 10 μL/w of test compounds and reference antagonist A438079 at 3×-concentration were injected with the FLIPRTETRA and the kinetic response over a period of five minutes was monitored. A second injection of 10 μL/w of 3× Bz-ATP EC80 (30 μM) was performed with the FLIPRTETRA and the signal of the emitted fluorescence was recorded for additional 60 minutes. All the experiment was carried out with a Low Divalent Cation Assay Buffer (0.3 mM Ca^2+ and 0 mM Mg^2+).
The effect of the test compounds was measured as percent inhibition vs the reference antagonist and IC50 values were calculated accordingly.

Experiment [2] concerns the target T1, P2X7 receptor. As to the kind of experiment: Screen Quest Fluo-8 No Wash Calcium Assay (Bz-ATP evoked Ca2+ influx, FLIPR). On the set-up: hP2X7 (IC50; nM); other: hP2X7; HEK-293 cells stably transfected with P2X7 receptor, Bz-ATP at EC80, Fluo-8 NW; potency. Particulars: hP2X7; HEK-293 cells stably transfected with P2X7 receptor, Bz-ATP at EC80, Fluo-8 NW; potency ranges A-D. The gist of the method:
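HEK-293 cells stably expressing P2X7 were loaded with Fluo-8 NW for 1 h at RT, then given compound, and 5 min later Bz-ATP at EC80. Fluorescence was read by FLIPR in low divalent cation buffer (0.3 mM Ca2+, 0 mM Mg2+). IC50 came from percent inhibition relative to reference antagonist A438079.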

In experiment [3] the target is T1, P2X7 receptor. As to the kind of experiment: Automated patch-clamp (QPatch16X) P2X7 channel assay. The arrangement: expressed in transfected cells; host or cells: HEK-293. As to conditions: HEK-293 cells expressing P2X7 channels; whole-cell, held at -80 mV; 100 microM BzATP; compound 1, 10, 100 and 1000 nM; read-out: Q-Patch (IC50). The method, then:
In order to directly monitor the block of P2X7 channel, an electrophysiological assay was developed and implemented on the QPatch16X automated electrophysiology instrument.
HEK-293 cells expressing the P2X7 channels were cultured in modified EMEM.
72 hours before experiment, 5 million cells were seeded onto T225 flasks. Just before the experiment cells were washed twice, detached from the flask with trypsin-EDTA, re-suspended in the suspension solution and placed on the QPatch 16x.
The compounds (20 mM in a 100% DMSO) stored at −20° C. were prepared the day of the experiment (a first dilution 1:20 in 100% DMSO to prepare a 1 mM stock solution, then a 1 microM solution in external solution+a serial dilution 1:10).
The standard whole-cell voltage clamp experiments were performed at room temperature. From these experiments the multihole technology was used and the data were sampled at 2 KHz.
The intracellular solution contained (mM) 135 CsF, 10 NaCl, 1 EGTA, 10 HEPES, (pH 7.2 with CsOH) whereas the extracellular contained (mM) 145 NaCl, 4 KCl, 0.5 MgCl2, 1 CaCl2, 10 HEPES, 10 Glc (pH 7.4 with NaOH).
After establishment of the seal and the passage in the whole cell configuration, the cells were held at −80 mV. The P2XR7 current was evoked by applying 100 microM of BzATP alone (4 times) and then in the presence increasing concentrations of the compound under investigation (1, 10, 100 and 1000 nM).
The pre-incubation periods 5 to 8 contain increasing concentrations of the compound of interest (1, 10, 100 and 1000 nM), as illustrated in FIGURE (application protocol).
The maximal inward current evoked by BzATP in absence or presence of increasing concentrations of the compounds under investigation was measured and normalized. The potential […] effect was measured as % of control and as IC50 determined fitting the dose-response curves data with the following equation: Y=100/(1+10^((Log IC50−X)*HillSlope))

What is called IC50 is the concentration that inhibits the measured activity by half. `O=c1onc(Cc2c(F)cccc2Cl)n1CC1CCCCC1` [Example 82, 3-[(2-chloro-6-fluorophenyl)methyl]-4-(cyclohexylmethyl)-4,5-dihydro-1,2,4-oxadiazol-5-one]: the results for the IC50 in experiment [1], in experiment [2] and in experiment [3] were 30 nM, less than 200 nM and 21.4 nM, respectively.
The matching figures for `O=c1onc(CC2CCCCC2)n1Cc1c(F)cccc1Cl` [Example 130, 4-[(2-chloro-6-fluorophenyl)methyl]-3-(cyclohexylmethyl)-4,5-dihydro-1,2,4-oxadiazol-5-one]: 233 nM, 200 to 1000 nM and 94.8 nM.
Turning to `O=c1onc(Cc2ccccc2F)n1CC1CCCCC1` [Example 120, 4-(cyclohexylmethyl)-3-[(2-fluorophenyl)methyl]-4,5-dihydro-1,2,4-oxadiazol-5-one], the IC50 in experiment [1] is 590 nM; in experiment [2] it was 200 to 1000 nM; in experiment [3] it was 162 nM.
`O=c1onc(Cc2ccc(F)cc2Cl)n1CC1CCCCC1` [Example 114, 3-[(2-chloro-4-fluorophenyl)methyl]-4-(cyclohexylmethyl)-4,5-dihydro-1,2,4-oxadiazol-5-one]: the IC50 in experiment [1] was 129 nM; in experiment [2], 200 to 1000 nM; in experiment [3], 165 nM.
As for `O=c1onc(Cc2c(F)cccc2Cl)n1Cc1ccc(C(F)(F)F)o1` [Example 66, 3-[(2-chloro-6-fluorophenyl)methyl]-4-{[5-(trifluoromethyl)furan-2-yl]methyl}-4,5-dihydro-1,2,4-oxadiazol-5-one], the IC50 in experiment [1] is 456 nM; in experiment [2] it was 200 to 1000 nM; in experiment [3] it was 1500 nM.
The corresponding values for `O=c1onc(Cc2c(F)cccc2Cl)n1CC1(F)CCCCC1` [Example 96, 3-[(2-chloro-6-fluorophenyl)methyl]-4-[(1-fluorocyclohexyl)methyl]-4,5-dihydro-1,2,4-oxadiazol-5-one] are 523 nM, 200 to 1000 nM and 245 nM.
For the compound `O=c1onc(Cc2c(F)cccc2Cl)n1Cc1cccc(F)c1` [Example 26, 3-[(2-chloro-6-fluorophenyl)methyl]-4-[(3-fluorophenyl)methyl]-4,5-dihydro-1,2,4-oxadiazol-5-one], the IC50 in experiment [1] was 329 nM; in experiment [2], 200 to 1000 nM; in experiment [3] it was 182 nM.
The corresponding values for `O=c1onc(Cc2c(F)cccc2Cl)n1CC1CCC(F)(F)C1` (single isomer, unassigned) [Example 149, 3-(2-chloro-6-fluorobenzyl)-4-[(3,3-difluorocyclopentyl)methyl]-1,2,4-oxadiazol-5(4H)-one] are 66 nM, less than 200 nM and 68.6 nM.
On to `O=c1snc(Cc2c(F)cccc2Cl)n1CC1CCC(F)(F)CC1` [Example 141, 3-[(2-chloro-6-fluorophenyl)methyl]-4-[(4,4-difluorocyclohexyl)methyl]-4,5-dihydro-1,2,4-thiadiazol-5-one], for which the IC50 was 31 nM in experiment [1], less than 200 nM in experiment [2] and 3.04 nM in experiment [3].
The corresponding values for `O=c1onc(Cc2c(F)cccc2Cl)n1CC1CCC(F)(F)CC1` [Example 84, 3-[(2-chloro-6-fluorophenyl)methyl]-4-[(4,4-difluorocyclohexyl)methyl]-4,5-dihydro-1,2,4-oxadiazol-5-one] are 3.4 nM, less than 200 nM and 8.43 nM.
Take `O=c1snc(Cc2c(F)cccc2Cl)n1CC1CCCCC1` [Example 140, 3-[(2-chloro-6-fluorophenyl)methyl]-4-(cyclohexylmethyl)-4,5-dihydro-1,2,4-thiadiazol-5-one]: the IC50 in experiment [1] was 181 nM; in experiment [2], 200 to 1000 nM; in experiment [3], 39.2 nM.
The matching figures for `O=c1onc(CC2CCC(F)(F)CC2)n1Cc1c(F)cccc1Cl` [Example 132, 4-[(2-chloro-6-fluorophenyl)methyl]-3-[(4,4-difluorocyclohexyl)methyl]-4,5-dihydro-1,2,4-oxadiazol-5-one]: 32 nM, less than 200 nM and 3.36 nM.
The corresponding values for `O=c1onc(Cc2c(F)cccc2Cl)n1CC12CCC(CC1)C2` [Example 91, 4-{bicyclo [2.2.1]heptan-1-ylmethyl}-3-[(2-chloro-6-fluorophenyl)methyl]-4,5-dihydro-1,2,4-oxadiazol-5-one] are 45 nM, less than 200 nM and 22 nM.
The corresponding values for `O=c1onc(Cc2c(F)cccc2Cl)n1Cc1ccc(Cl)cc1` [Example 65, 3-[(2-chloro-6-fluorophenyl)methyl]-4-[(4-chlorophenyl)methyl]-4,5-dihydro-1,2,4-oxadiazol-5-one] are 318 nM, 200 to 1000 nM and 348 nM.
Take `Cc1noc(C)c1Cc1noc(=O)n1CC1CCCCC1` [Example 210, 4-(cyclohexylmethyl)-3-[(dimethyl-1,2-oxazol-4-yl)methyl]-4,5-dihydro-1,2,4-oxadiazol-5-one]: the IC50 in experiment [1] is 184 nM; in experiment [2], 200 to 1000 nM; in experiment [3], 149 nM.
For the compound `O=c1onc(Cc2c(F)cccc2Cl)n1CC1CCCCC1(F)F` (stereo not drawn) [Example 97, 3-[(2-chloro-6-fluorophenyl)methyl]-4-[(2,2-difluorocyclohexyl)methyl]-4,5-dihydro-1,2,4-oxadiazol-5-one], the results for the IC50 in experiment [1], in experiment [2] and in experiment [3] were 193 nM, less than 200 nM and 100 nM, respectively.
`Cc1noc(C)c1Cc1noc(=O)n1CC1CCC(F)(F)CC1` [Example 211, 4-[(4,4-difluorocyclohexyl)methyl]-3-[(dimethyl-1,2-oxazol-4-yl)methyl]-4,5-dihydro-1,2,4-oxadiazol-5-one]: the IC50 in experiment [1] was 171 nM; in experiment [2], less than 200 nM; in experiment [3], 119 nM.
